Tests used:
Details in all cases: 48 h
NCI-H295R [1] = assay: AC50 viability; higher = less potent
In short: (§1)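 AC50 and area under the curve values derive from fitted concentration-response curves, restricted to inhibitory or non-responding curve classes. The curves came from three adrenocortical carcinoma cell lines in 1,536-well plates, each receiving 23 nL of every library compound at 11 concentrations. Viability was read by CellTiter-Glo luminescence after 48 h, normalised per plate to vehicle and empty-well controls.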

CU-ACC2 [2] = assay: AC50 viability; higher = less potent
In short: as §1

NCI-H295R [3] = assay: area under concentration-response curve (viability) (AUC (a.u.)); higher = less active
In short: as §1

CU-ACC2 [4] = assay: as above
In short: as §1

CU-ACC1 = assay: as above
In short: as §1

SMILES	AC50 viability (NCI-H295R [1])	AC50 viability (CU-ACC2 [2])	area under concentration-response curve (NCI-H295R [3])	area under concentration-response curve (CU-ACC2 [4])	area under concentration-response curve (CU-ACC1)
COc1ccc2[nH]c3c(c2c1)CCN[C@]31CS[C@@H]2c3c(OC(C)=O)c(C)c4c(c3[C@H](COC1=O)N1[C@@H]2[C@H]2c3c(cc(C)c(OC)c3O)C[C@@H]([C@@H]1O)N2C)OCO4	0.00762 µM	0.00762 µM	161	187	178
CN[C@H]1CCC2=CC(=C(OC)C(=C2C/3=C/C=C(OC)\C(=O)/C=C13)OC)OC	0.0934 µM	0.468 µM	417	463	478
Nc1nc(N)c(N=O)c(OCC2CCCCC2)n1	9.34 µM	20.9 µM	451	492	466
N#CC(c1ccnc(NCCc2cccnc2)n1)c1nc2ccccc2s1 (stereo not given)	20.9 µM	16.6 µM	410	493	509
N#Cc1cc2cc(CN3CCC(Nc4ncnc5sc(CC(F)(F)F)cc45)CC3)c(O)cc2n1Cc1cn[nH]c1	18.6 µM	18.6 µM	501	565	527
CN(C)Cc1ccc([S+](=O)([O-])n2ccc(/C=C/C(=O)NO)c2)cc1	16.6 µM	9.34 µM	465	496	461
CC(=O)O[C@H]1C(=O)[C@]2(C)[C@@H](O)C[C@H]3OC[C@@]3(OC(C)=O)C2[C@H](OC(=O)C4=CC=CC=C4)[C@]5(O)C[C@H](OC(=O)[C@H](O)[C@@H](NC(=O)C6=CC=CC=C6)C7=CC=CC=C7)\C(=C1/C5(C)C)C (stereo not given in full)	0.209 µM	8.33 µM	379	473	424
COCCNCc1ccc(-c2cc3nccc(Oc4ccc(NC(=S)NC(=O)Cc5ccc(F)cc5)cc4F)c3s2)nc1	4.68 µM	7.42 µM	388	444	436
CCC[C@@H](C=O)NC(=O)[C@H](CC(C)C)NC(=O)[C@H](CC(C)C)NC(=O)OCc1ccccc1	1.18 µM	1.48 µM	439	438	417
OC1=CC2=C(C(=C1)O)C(=O)\C=C(/O2)C3=CC=CC=C3	0.263 µM	1.66 µM	437	416	397
COc1ccc(-c2ccc3ncc4c(c3c2)n(-c2ccc(N3CCNCC3)c(C(F)(F)F)c2)c(=O)n4C)cn1	1.05 µM	1.86 µM	330	385	376
Cc1nc([C@](C)(O)CO)sc1-c1cnc(N)c(O[C@H](C)c2cc(F)ccc2-n2nccn2)c1	2.63 µM	1.86 µM	421	520	480
O=C1c2ccccc2-[n+]2ccc3c([nH]c4ccccc43)c21	2.35 µM	2.35 µM	374	381	379
Cn1c2ccccc2c2c3c(c4c5ccccc5n(CCC#N)c4c21)CNC3=O	14.8 µM	16.6 µM	503	535	401
C[C@@H](OC[C@@]1(c2ccccc2)CC[C@]2(CCC(=O)N2)CN1)c1cc(C(F)(F)F)cc(C(F)(F)F)c1	16.6 µM	20.9 µM	497	566	550
N[S+](=O)([O-])c1cccc2c1C(=O)c1cccc(O)c1C2=O	0.661 µM	0.661 µM	370	380	315
CCCCC(C)(C)[C@H](O)/C=C/[C@H]1[C@H](O)CC(=O)[C@@H]1C/C=C\CCCC(=O)O	0.00372 µM	0.105 µM	211	307	325
CC[S+](=O)([O-])N1CC(CC#N)(n2cc(-c3ncnc4[nH]ccc34)cn2)C1	18.6 µM	20.9 µM	513	530	472
CC[S+](=O)([O-])Nc1ccc2c(c1)/C(=C(/Nc1ccc(CN3CCCCC3)cc1)c1ccccc1)C(=O)N2	5.25 µM	3.32 µM	408	425	447
Oc1cccc(-c2nc(N3CCOCC3)c3oc4ncccc4c3n2)c1	2.09 µM	0.332 µM	404	427	401
CN1CCN(Cc2ccc(Nc3ncc(Cl)/c(=N\c4ccccc4[S+](=O)([O-])N(C)C)[nH]3)cc2)CC1	0.241 µM	0.108 µM	364	378	437
CC(C)C(N)C(=O)OCC(CO)OC[N]1C=NC2=C1N\C(=N/C2=O)N (stereo not given)	0.661 µM	5.25 µM	436	436	426
CC[C@@H]([C@H](C)O)N1\N=C/N(C1=O)C2=CC=C(C=C2)N3CCN(CC3)C4=CC=C(OCC5CO[C@@](C5)(C[N]6C=NC=N6)C7=C(F)C=C(F)C=C7)C=C4 (stereo not given in full)	8.33 µM	7.42 µM	423	447	403
c1ccc2c(-c3cnn4cc(-c5ccc(N6CCNCC6)cc5)cnc34)ccnc2c1	2.09 µM	2.95 µM	439	498	434
O=C1Nc2cc(Br)ccc2/C1=C1/Nc2ccccc2/C1=N\O	23.5 µM	18.6 µM	511	515	480
NC(=O)Nc1sc(-c2ccc(F)cc2)cc1C(N)=O	5.9 µM	8.33 µM	485	559	511
CCc1nc(C(N)=O)c(Nc2ccc(N3CCC(N4CCN(C)CC4)CC3)c(OC)c2)nc1NC1CCOCC1	4.17 µM	13.2 µM	500	477	533
